How the values were obtained:
Assay in all cases: Displacement of [3H]AMPA binding on membranes of transfected HEK293 cells
Conditions in all cases: mean ± S.E.; for Hill slope: displacement of [3H]AMPA binding, Prism software
[1] = target: T1, GluR4 (4-19) (Homo sapiens, UniProt P48058)
T1 construct: expressed in transfected cells; host or cells: HEK293, plasmid pHGluR4/pcDNA3
Description: (§1) In order to examine the pharmacological identity of the stably expressed recombinant receptors, competitive binding studies were performed.
(§2) The binding studies were carried out as outlined previously (Keinänen et al., 1990; Fletcher et al., 1995). […] The pellets were resuspended in 50 mM Tris-HCl (pH 7.5) and repeated the homogenization and centrifugation. […] The cell membranes were incubated with the radioligand for 60 minutes on ice, and subsequently collected by rapid filtration through GF/C filters. […] The filters were washed rapidly with cold assay buffer. The radioactivity retained in the filters was measured by liquid scintillation counting.

[2] = target: T2, GluR3 (5-42) (Homo sapiens, UniProt P42263)
T2 construct: expressed in transfected cells; host or cells: HEK293, plasmid pHGluR3/pcDNA3
Description: as §1, §2

[3] = target: T3, GluR1 (1-24) (Homo sapiens, UniProt P42261)
T3 construct: expressed in transfected cells; host or cells: HEK293, plasmid pHGluR1/pcDNA3
Description: as §1, §2

[4] = displacement of [3H]AMPA, Cheng-Prusoff equation, 0.1 M KSCN, on ice

T3 sequence (P42261 19-906 isoform P42261-2 limits assumed): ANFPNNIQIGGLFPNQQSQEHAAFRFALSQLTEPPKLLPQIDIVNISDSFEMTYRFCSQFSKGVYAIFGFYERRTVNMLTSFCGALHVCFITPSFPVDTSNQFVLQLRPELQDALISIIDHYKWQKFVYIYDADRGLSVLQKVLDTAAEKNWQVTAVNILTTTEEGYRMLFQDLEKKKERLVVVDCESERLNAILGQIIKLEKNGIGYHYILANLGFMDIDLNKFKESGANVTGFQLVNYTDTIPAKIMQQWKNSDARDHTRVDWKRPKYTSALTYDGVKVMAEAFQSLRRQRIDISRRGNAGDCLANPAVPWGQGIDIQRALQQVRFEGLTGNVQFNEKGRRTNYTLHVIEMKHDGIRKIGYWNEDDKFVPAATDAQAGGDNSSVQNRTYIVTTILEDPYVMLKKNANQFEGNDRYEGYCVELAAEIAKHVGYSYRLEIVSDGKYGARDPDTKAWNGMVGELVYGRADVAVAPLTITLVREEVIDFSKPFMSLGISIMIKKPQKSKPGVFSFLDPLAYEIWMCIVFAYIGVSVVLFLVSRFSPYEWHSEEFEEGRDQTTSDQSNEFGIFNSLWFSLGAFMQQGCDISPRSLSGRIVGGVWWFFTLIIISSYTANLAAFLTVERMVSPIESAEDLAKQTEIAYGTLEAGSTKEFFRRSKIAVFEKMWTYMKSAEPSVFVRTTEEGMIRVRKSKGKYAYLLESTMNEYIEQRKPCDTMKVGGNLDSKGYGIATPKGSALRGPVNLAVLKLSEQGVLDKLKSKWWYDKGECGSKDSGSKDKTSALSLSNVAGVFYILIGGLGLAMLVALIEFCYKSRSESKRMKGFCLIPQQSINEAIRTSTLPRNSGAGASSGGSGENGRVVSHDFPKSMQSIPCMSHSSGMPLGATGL
T2 sequence (P42263 29-894 isoform P42263-2 limits assumed): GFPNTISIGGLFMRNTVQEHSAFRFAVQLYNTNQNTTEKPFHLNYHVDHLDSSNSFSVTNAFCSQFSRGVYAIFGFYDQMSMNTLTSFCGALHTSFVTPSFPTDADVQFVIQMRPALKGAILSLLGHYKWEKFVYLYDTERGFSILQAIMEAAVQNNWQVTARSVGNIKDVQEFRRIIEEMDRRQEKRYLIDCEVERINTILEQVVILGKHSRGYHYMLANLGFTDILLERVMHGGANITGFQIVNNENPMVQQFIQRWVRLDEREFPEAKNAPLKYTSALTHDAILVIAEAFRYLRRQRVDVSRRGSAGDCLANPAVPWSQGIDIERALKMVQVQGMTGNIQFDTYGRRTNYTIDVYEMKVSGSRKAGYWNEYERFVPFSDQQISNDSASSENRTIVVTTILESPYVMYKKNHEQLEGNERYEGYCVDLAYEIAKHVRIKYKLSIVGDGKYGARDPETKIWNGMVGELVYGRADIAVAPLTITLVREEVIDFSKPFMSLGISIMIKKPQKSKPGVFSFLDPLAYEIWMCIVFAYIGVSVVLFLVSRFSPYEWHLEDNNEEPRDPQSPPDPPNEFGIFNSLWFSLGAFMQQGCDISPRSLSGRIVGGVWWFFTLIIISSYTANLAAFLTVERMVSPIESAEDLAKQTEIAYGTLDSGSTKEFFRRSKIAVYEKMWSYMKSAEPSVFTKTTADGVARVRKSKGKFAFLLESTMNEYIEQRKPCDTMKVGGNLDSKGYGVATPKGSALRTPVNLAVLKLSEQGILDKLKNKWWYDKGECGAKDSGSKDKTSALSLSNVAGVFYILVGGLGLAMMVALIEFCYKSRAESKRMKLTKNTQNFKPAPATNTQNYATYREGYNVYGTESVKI
T1 sequence (P48058 21-902): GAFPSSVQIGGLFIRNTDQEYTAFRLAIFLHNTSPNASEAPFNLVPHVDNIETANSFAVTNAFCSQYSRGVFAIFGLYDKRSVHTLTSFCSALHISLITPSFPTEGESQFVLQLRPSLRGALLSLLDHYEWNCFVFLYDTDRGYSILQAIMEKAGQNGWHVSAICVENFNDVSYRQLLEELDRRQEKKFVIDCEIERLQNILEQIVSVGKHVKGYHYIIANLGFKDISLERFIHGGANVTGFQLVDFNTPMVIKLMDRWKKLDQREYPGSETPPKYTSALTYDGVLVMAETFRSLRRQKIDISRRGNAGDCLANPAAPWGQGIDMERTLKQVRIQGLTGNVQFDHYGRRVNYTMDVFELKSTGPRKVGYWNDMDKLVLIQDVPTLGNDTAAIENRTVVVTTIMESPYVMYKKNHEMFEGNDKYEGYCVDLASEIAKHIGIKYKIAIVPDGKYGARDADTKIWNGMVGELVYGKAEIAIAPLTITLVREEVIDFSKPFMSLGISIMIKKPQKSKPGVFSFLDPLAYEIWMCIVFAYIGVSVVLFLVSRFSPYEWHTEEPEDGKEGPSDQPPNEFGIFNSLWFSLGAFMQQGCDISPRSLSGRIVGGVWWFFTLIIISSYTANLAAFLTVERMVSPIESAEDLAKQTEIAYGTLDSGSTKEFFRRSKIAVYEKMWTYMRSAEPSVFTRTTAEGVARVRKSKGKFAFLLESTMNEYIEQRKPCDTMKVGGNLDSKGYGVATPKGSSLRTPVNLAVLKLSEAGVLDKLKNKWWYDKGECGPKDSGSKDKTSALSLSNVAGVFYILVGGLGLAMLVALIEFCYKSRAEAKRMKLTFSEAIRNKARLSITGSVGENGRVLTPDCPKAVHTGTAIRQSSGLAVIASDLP

Question: What does the source list for N#Cc1cc2[nH]c(=O)c(=O)[nH]c2cc1[N+](=O)[O-] [CNQX]?
Answer: Hill slope [1]: -0.86 ± 0.06; Hill slope [2]: -0.83 ± 0.06; Hill slope [3]: -1.00 ± 0.06

Question: For CN1Cc2c(S(=O)(=O)N(C)C)cc3c(c2C1)NC(=O)C3=NO [NS257], which Hill slope [1] is on record?
Answer: Its Hill slope is -0.83 ± 0.03.

Question: And the Ki [1, 4]?
Answer: The Ki was 1050 ± 78 nM.

Question: And the Hill slope [2]?
Answer: The Hill slope was -1.01 ± 0.22.

Question: And the Ki [2, 4]?
Answer: Its Ki is 967 ± 124 nM.

Question: And the Hill slope [3]?
Answer: Its Hill slope is -0.85 ± 0.08.

Question: And the Ki [3, 4]?
Answer: Its Ki is 1970 ± 148 nM.

— patent EP1065215A1 (Boehringer Ingelheim International GmbH, priority 1999, dated 2001)
